pIC50: −log10 of the molar value.
What was measured:
[1] = test system: p-ERK pathway in H358 cells; assay: p-ERK pathway inhibition in H358 cells (Advanced phospho-ERK (Thr202/Tyr204) cellular kit, HTRF); format: cell-based; settings: Homo sapiens, NCI-H358, 1 h compound incubation
Protocol: The effect of the compounds of the present invention on H358 cell p-ERK pathway was assessed by Advanced phospho-ERK (Thr202/Tyr204) cellular kit method.
The experimental procedures were summarized as follows: H358 cells (ATCC, CRL-5807) were cultured in RPMI1640 (ThermoFisher, A1049101) complete medium containing 10% FBS (Gibco, 10100147) and 100 U/mL penicillin-streptomycin mixed solution (Gibco, 15140163). When the coverage of the cells in the culture vessel reached 80-90%, the cells were pipetted and seeded in a 96-well plate (Corning, 3599) at 50000 cells/well (90 µL RPMI1640 complete medium), and the plate was left to stand for 5 min, cultured in an incubator at 37 °C with 5% CO2 for 6 h, replaced with a serum-free RPMI1640, and starved overnight.
After incubation overnight, 10 µL of a diluted test compound was added to each well using a multi-channel pipette, and the 96-well plate was cultured in an incubator at 37 °C with 5% CO2 for 1 h. The supernatant was poured. The cells were washed once with PBS. 50 µL of a lysis buffer (Advanced phospho-ERK (Thr202/Tyr204) cellular kit, 64AERPEH) was added to each well. The plate was shaken at room temperature at 450 rpm for 1 h. After the cells were completely lysed, 16 µL of the supernatant was added to a 384-well plate (PE, 6007299), mixed energy donor Eu and energy acceptor D2 (D2/Eu = 1:1) were added, and the plate was incubated at room temperature for 4 h. HTRF on the microplate reader was selected for plate reading, Ratio = Signal 665 nm/Signal 620 nm × 10^4. In this experiment, the cell-free group (replaced with 1640 medium) was used as the 100% inhibition group, and the compound-free group in which the cell was added was used as the 0% inhibition group.
The inhibition percentage of H358 cell p-ERK pathway by the compounds of the present invention could be calculated by the following formula: [formula]
(§1) IC50 values of the compounds were calculated from 8 concentration points using XLfit (ID Business Solutions Ltd., UK) software by the following formula: Y = Bottom + (Top−Bottom)/(1+10^(∧)((logIC50−X)×slopefactor)) [formula]
Y is the inhibition percentage, X is the logarithmic value of the concentration of the test compound, Bottom is the minimum inhibition percentage, Top is the maximum inhibition percentage, and slope factor is the slope coefficient of the curve. The default fitted curve was used to fit the slope of the S-shaped curve to determine the IC50 value. Table 2. Results of p-ERK inhibition test by the compounds of the present invention

H358 cells = assay: H358 cell proliferation inhibition (CellTiter-Glo luminescent cell viability assay); format: cell-based; settings: 7 days
Protocol: The effect of the compounds of the present invention on H358 cell proliferation was assessed by CellTiter-Glo luminescent cell viability assay kit method.
H358 cells (ATCC, CRL-5807) were cultured in RPMI1640 (Hyclone, SH30256.01) complete medium containing 10% FBS (Gibco, 10100147) and 100 U/mL penicillin-streptomycin mixed solution (Gibco, 15140163). When the cells grew to 80-90%, the cells were digested, pipetted, and seeded in a 96-well plate (Corning, 4515) at 3000 cells/well (180 µL RPMI1640 complete medium), and then the 96-well plate was incubated overnight in an incubator at 37 °C with 5% CO2.
After incubation overnight, 20 µL of a diluted test compound was added to each well using a multi-channel pipette, and the 96-well plate was placed in an incubator at 37 °C with 5% CO2 for further culture. After 7 days, 100 µL of the supernatant was pipetted and discarded. 50 µL of CellTiter-Glo® 3D Cell Viability Assay liquid was added to each well. The plate was shaken at room temperature at 450 rpm for 30 min. After the cells were completely lysed, "Luminescence" on the microplate reader was selected for plate reading. In this experiment, the cell-free group (replaced with 1640 medium) was used as the 100% inhibition group, and the compound-free group in which the cell was added was used as the 0% inhibition group.
The inhibition percentage of H358 cell proliferation by the compounds of the present invention could be calculated by the following formula: [formula]
as §1
Y is the inhibition percentage, X is the logarithmic value of the concentration of the test compound, Bottom is the minimum inhibition percentage, Top is the maximum inhibition percentage, and slope factor is the slope coefficient of the curve.

Compound: Cc1nc(N[C@H](C)c2cccc(C(F)F)c2F)c2cn(C3(CF)CC3)c(=O)c(N3CCN4CCC[C@@H]4C3)c2n1 (stereo in doubt) [Example 97, 4-(((R)-1-(3-(difluoromethyl)-2-fluorophenyl)ethyl)amino)-6-(1-(fluoromethyl)cyclopropyl)-8-((R)-hexahydropyrrolo[1,2-a]pyrazin-2(1H)-yl)-2-methylpyrido[4,3-d]pyrimidine-7(6H)-one]
- pIC50 [1]: 7.18
- pIC50 (H358 cells; Homo sapiens, NCI-H358, 168 h): 7.93

Compound: COc1c(=O)n(C2(CF)CC2)cc2c(N[C@H](C)c3cccc(C#N)c3C)nc(C)nc12 [Example 3, (R)-3-(1-((6-(1-(fluoromethyl)cyclopropyl)-8-methoxy-2-methyl-7-oxo-6,7-dihydropyrido[4,3-d]pyrimidin-4-yl)amino)ethyl)-2-methylbenzonitrile]
- pIC50 (H358 cells; Homo sapiens, NCI-H358, 168 h): 7.21

Compound: COc1c(=O)n(C2(C)CCN(C(C)=O)C2)cc2c(N[C@H](C)c3cccc(C(F)F)c3F)nc(C)nc12 (stereo partly drawn) [Example 7, 6-(1-acetyl-3-methylpyrrolidin-3-yl)-4-(((R)-1-(3-(difluoromethyl)-2-fluorophenyl)ethyl)amino)-8-methoxy-2-methylpyrido[4,3-d]pyrimidine-7(6H)-one]
- pIC50 (H358 cells; Homo sapiens, NCI-H358, 168 h): 7.13

Compound: Cc1nc(N[C@H](C)c2cccc(C(F)F)c2F)c2cn(C3(CF)CC3)c(=O)c(OCC3CC3)c2n1 [Example 35, (R)-8-(cyclopropylmethoxy)-4-((1-(3-(difluoromethyl)-2-fluorophenyl)ethyl)amino)-6-(1-(fluoromethyl)cyclopropyl)-2-methylpyrido[4,3-d]pyrimidine-7(6H)-one]
- pIC50 (H358 cells; Homo sapiens, NCI-H358, 168 h): 6.81

Compound: Cc1nc(N[C@H](C)c2cccc(C(F)F)c2F)c2cn(C3(CF)CC3)c(=O)c(N)c2n1 [Example 59, (R)-8-amino-4-((1-(3-(difluoromethyl)-2-fluorophenyl)ethyl)amino)-6-(1-(fluoromethyl)cyclopropyl)-2-methylpyrido[4,3-d]pyrimidine-7(6H)-one]
- pIC50 (H358 cells; Homo sapiens, NCI-H358, 168 h): 6.79

Compound: Cc1nc(N[C@H](C)c2cccc(C(F)F)c2F)c2cn(C3(CF)CC3)c(=O)c(Oc3cnn(C)c3)c2n1 [Example 60, (R)-4-((1-(3-(difluoromethyl)-2-fluorophenyl)ethyl)amino)-6-(1-(fluoromethyl)cyclopropyl)-2-methyl-8-((1-methyl-1H-pyrazol-4-yl)oxy)pyrido[4,3-d)pyrimidine-7(6H)-one]
- pIC50 (H358 cells; Homo sapiens, NCI-H358, 168 h): 6.79

Compound: Cc1nc(N[C@H](C)c2cccc(C#N)c2C)c2cn(N3CCOCC3)c(=O)c(-c3ccc(C#N)nc3)c2n1 [Example 64, (R)-5-(4-((1-(3-cyano-2-methylphenyl)ethyl)amino)-2-methyl-6-morpholine-7-oxo-6,7-dihydropyrido[4,3-d]pyrimidin-8-yl)pyridinecarbonitrile]
- pIC50 (H358 cells; Homo sapiens, NCI-H358, 168 h): 7.39

Compound: Cc1nc(N[C@H](C)c2cccc(C#N)c2C)c2cn(C3(CF)CC3)c(=O)c(-c3ccc(C#N)nc3)c2n1 [Example 67, (R)-5-(4-((1-(3-cyano-2-methylphenyl)ethyl)amino)-6-(1-(fluoromethyl)cyclopropyl)-2-methyl-7-oxo-6,7-dihydropyrido[4,3-d]pyrimidin-8-yl)pyridinecarbonitrile]
- pIC50 (H358 cells; Homo sapiens, NCI-H358, 168 h): 6.93

Compound: Cc1nc(N[C@H](C)c2cccc(C#N)c2C)c2cn(C3(CF)CC3)c(=O)c(N3CCN(C)CC3)c2n1 [Example 74, (R)-3-(1-((6-(1-(fluoromethyl)cyclopropyl)-2-methyl-8-(4-methylpiperazin-1-yl)-7-oxo-6,7-dihydropyrido[4,3-d]pyrimidin-4-yl)amino)ethyl)-2-methylbenzonitrile]
- pIC50 (H358 cells; Homo sapiens, NCI-H358, 168 h): 7.07

Compound: Cc1nc(N[C@H](C)c2cccc(C(F)F)c2F)c2cn(C3(CF)CC3)c(=O)c(OC(=O)N3CCN(C)CC3)c2n1 [Example 86, (R)-4-((1-(3-(difluoromethyl)-2-fluorophenyl)ethyl)amino)-6-(1-(fluoromethyl)cyclopropyl)-2-methyl-7-oxo-6,7-dihydropyrido[4,3-d]pyrimidin-8-yl-4-methylpiperazine-1-carboxylate]
- pIC50 (H358 cells; Homo sapiens, NCI-H358, 168 h): 6.92

Compound: Cc1nc(N[C@H](C)c2cccc(C#N)c2C)c2cn(N3CCOCC3)c(=O)c(-c3ccc(N4CCCC4)nc3)c2n1 [Example 89, (R)-2-methyl-3-(1-((2-methyl-6-morpholinyl-7-oxo-8-(6-(pyrrolidin-1-yl)pyridin-3-yl)-6,7-dihydropyrido[4,3-d]pyrimidin-4-yl)amino)ethyl)benzonitrile]
- pIC50 (H358 cells; Homo sapiens, NCI-H358, 168 h): 6.87

Compound: Cc1nc(N[C@H](C)c2cccc(C(F)F)c2F)c2cn(N3CCOCC3)c(=O)c(Oc3ccnc(C#N)c3)c2n1 [Example 118, (R)-4-((4-((1-(3-(difluoromethyl)-2-fluorophenyl)ethyl)amino)-2-methyl-6-morpholino-7-oxo-6,7-dihydropyrido[4,3-d]pyrimidin-8-yl)oxy)pyridinecarbonitrile]
- pIC50 (H358 cells; Homo sapiens, NCI-H358, 168 h): 6.87

Compound: COC1(c2c(=O)n(C3(CF)CC3)cc3c(N[C@H](C)c4cccc(C(F)F)c4F)nc(C)nc23)CCOC1 (stereo partly drawn) [Example 140, 4-(((R)-1-(3-(difluoromethyl)-2-fluorophenyl)ethyl)amino)-6-(1-(fluoromethyl)cyclopropyl)-8-(3-methoxytetrahydrofuran-3-yl)-2-methylpyrido[4,3-d]pyrimidine-7(6H)-one]
- pIC50 [1]: 6.88

Compound: Cc1nc(N[C@H](C)c2cccc(C(F)F)c2F)c2cn(C3(CF)CC3)c(=O)c(N3CCN(C4COC4)CC34CC4)c2n1 [Example 146, (R)-4-((1-(3-(difluoromethyl)-2-fluorophenyl)ethyl)amino)-6-(1-(fluoromethyl)cyclopropyl)-2-methyl-8-(7-(oxetan-3-yl)-4,7-diazaspiro [2.5]octan-4-yl)pyrido [4,3-d]pyrimidine-7(6H)-one]
- pIC50 (H358 cells; Homo sapiens, NCI-H358, 168 h): 7.16

Compound: Cc1nc(N[C@H](C)c2cccc(C(F)F)c2F)c2cn(C3(CF)CC3)c(=O)c(N3CCC4(COC4)C3)c2n1 [Example 154]
- pIC50 (H358 cells; Homo sapiens, NCI-H358, 168 h): 6.93

Compound: Cc1nc(N[C@H](C)c2cccc(C(F)F)c2F)c2cn(C3(CF)CC3)c(=O)c(NC(=O)c3ccccn3)c2n1 [Example 157]
- pIC50 (H358 cells; Homo sapiens, NCI-H358, 168 h): 7.07

Compound: Cc1nc(N[C@H](C)c2cccc(C#N)c2C)c2cn(N3CCOCC3)c(=O)c(-c3ccnc(N4CCOCC4)c3)c2n1 [Example 163]
- pIC50 [1]: 7.36

Compound: Cc1nc(N[C@H](C)c2cccc(C(F)F)c2F)c2cn(C3(CF)CC3)c(=O)c(N3CCC(F)(F)CC3)c2n1 [Example 169]
- pIC50 [1]: 6.92

Compound: Cc1nc(N[C@H](C)c2cccc(C(F)F)c2F)c2cn(C3(CF)CC3)c(=O)c(-c3cnn4c3CCC4)c2n1 [Example 170]
- pIC50 [1]: 6.86

Compound: Cc1nc(N[C@H](C)c2cccc(C(F)F)c2F)c2cn(C3(CF)CC3)c(=O)c(N3CCOCC3=O)c2n1 [Example 172, (R)-4-(4-((1-(3-(difluoromethyl)-2-fluorophenyl)ethyl)amino)-6-(1-(fluoromethyl)cyclopropyl)-2-methyl-7-oxo-6,7-dihydropyrido[4,3-d]pyrimidin-8-yl)morpholine-3-one]
- pIC50 [1]: 6.78

Compound: Cc1nc(N[C@H](C)c2cccc(C(F)F)c2F)c2cn(C3(CF)CC3)c(=O)c(N3CCC(C)(C#N)CC3)c2n1 [Example 173]
- pIC50 [1]: 7.01

Compound: (R)-4-((1-(3-(difluoromethyl)-2-fluorophenyl)ethyl)amino)-8-ethoxy-6-(1-(fluoromethyl)cyclopropyl)-2-methylpyrido[4,3-d]pyrimidine-7(6H)-one [Example 10]
- pIC50 (H358 cells): 7.38

Reference: patent EP4417607A1, “HETEROCYCLIC COMPOUND AS SOS1 INHIBITOR AND USES THEREOF” (Nanjing Zaiming Pharmaceutical Co., Ltd., priority 2021, dated 2023)
